{"source": "patent US12208080B2", "about": "“Compositions and methods for modulation of extracellular vesicle release and treatment of neurological disorders” (GEORGE MASON RESEARCH FOUNDATION, INC., priority 2018, dated 2025)", "key": {"[1]": {"test_system": "RNA polymerase II (Pol II) loading", "experiment": "Chromatin immunoprecipitation of Pol II, qPCR for TAR DNA", "assay_type": "cell-based", "settings": "U1; CBD 10 μM, Flavo 50 nM; 2-hour and 6-hour; FIG. 15C", "experimental": "FIGS. 15A-15C are graphs and gels showing cannabidiols lower intracellular viral transcription and downstream viral products. U1 cells (1×10^6) were treated with a titration of CBD (1, 5, 10 μM) and THC (1, 5, 10 μg/mL) every day for 5 days. A) Intracellular RNA was isolated and analyzed through RT-qPCR for HIV-1 viral transcripts TAR and env. Each bar represents an average of three independent replicates. B) U1 cells (2×10^6) were treated with a titration of CBD (1, 5, 10 μM) every day for 5 days. Cells pellets were lysed, run through SDS-PAGE, and western blotted for (p-)/NF-κB, autophagosomal markers (p63, LC3), EV biogenesis marker VPS4, viral markers (gp120, Nef, p24), and Actin. C) U1 cells (5×10^6) were treated±CBD (10 μM) and Flavopiridol hydrochloride (50 nM; indicated as Flavo) and incubated for the following time points: 0 minutes, 2 hours and 6 hours. Cells were cross-linked with 1% formaldehyde solution and ChIP-ed for IgG and Pol II. ChIP DNA samples were analyzed via qPCR for TAR and env. Student's t-test was used for statistical analysis, where *p-value≤0.05; **p-value≤0.01, ***p-value≤0.001. […]\nU1 monocytes were treated with CBD (10 μM) and Flavo (50 nM) for short periods (0, 2 and 6 hours) due to the fact that HIV-1 transcription activity is a rapid event that can be scored using chromatin immunoprecipitation (ChIP) assay for factor occupancy. […]"}, "[2]": {"test_system": "HIV-1 infected monocytes (U1)", "experiment": "Western blot/densitometry of intracellular viral and ESCRT proteins in U1 cells", "assay_type": "cell-based", "experimental": "FIGS. 15A-15C are graphs and gels showing cannabidiols lower intracellular viral transcription and downstream viral products. U1 cells (1×10^6) were treated with a titration of CBD (1, 5, 10 μM) and THC (1, 5, 10 μg/mL) every day for 5 days. A) Intracellular RNA was isolated and analyzed through RT-qPCR for HIV-1 viral transcripts TAR and env. Each bar represents an average of three independent replicates. B) U1 cells (2×10^6) were treated with a titration of CBD (1, 5, 10 μM) every day for 5 days. Cells pellets were lysed, run through SDS-PAGE, and western blotted for (p-)/NF-κB, autophagosomal markers (p63, LC3), EV biogenesis marker VPS4, viral markers (gp120, Nef, p24), and Actin. C) U1 cells (5×10^6) were treated±CBD (10 μM) and Flavopiridol hydrochloride (50 nM; indicated as Flavo) and incubated for the following time points: 0 minutes, 2 hours and 6 hours. Cells were cross-linked with 1% formaldehyde solution and ChIP-ed for IgG and Pol II. ChIP DNA samples were analyzed via qPCR for TAR and env. Student's t-test was used for statistical analysis, where *p-value≤0.05; **p-value≤0.01, ***p-value≤0.001.\nFIGS. 16A-16E are graphs showing normalized densitometry analysis of CBD lowering intracellular […] in HIV-1 infected monocytes. (A) Nef, (B) Pr55, (C) p24, (D) VPS4, and (E) CHMP6 densitometry counts were performed on the Western blot data from FIG. 4B, all of which were normalized to Actin levels.\nLaemmli buffer was added to sample cell lysates (10-20 μg) or NT80/82 pellets. Lysates were heated at 95° C. for 3 min and 15 μL of sample was loaded onto a 4-20% Tris/glycine gel (Invitrogen). When analyzing NT80/82 pellets, samples were heated at 95° C. for 3 min, vortexed, and then heated two additional times to release captured material from NT80/82 beads. Following the release of captured cargo, the total sample was then loaded on to a 4-20% Tris-Glycine gel (Invitrogen). Gels were run at 100 V and transferred onto Immobilon PVDF membranes (Millipore) at 50 mA overnight. Membranes were blocked in 5% milk in PBS with 0.1% Tween-20 (PBS-T) for 2 h at 4° C., then incubated overnight at 4° C. in PBS-T with the appropriate primary antibody ((α-p24 (Cat: 4121; NIH AIDS Reagent Program), α-Nef (Cat: 3689; NIH AIDS Reagent Program), α-gp120 (Cat: 522; NIH AIDS Reagent Program), α-CD81 (Cat: EXOAB-CD81A-1; SBI), α-VPS4 (Cat: sc-32922; Santa Cruz Biotechnology), α-CHMP6 (Cat: sc-67231; Santa Cruz Biotechnology), α-Actin (ab-49900; Abcam), α-CD63 (Cat: EXOAB-CD63A-1; Systems Biosciences), α-SQSTM1/p62 (Cat: 5114; Cell Signaling Technology), α-MAP LC3 α/β (Cat: sc-398822; Santa Crux Biotechnology), α-Alix (Cat: sc-49268; Santa Cruz Biotechnology), α-ATG12 (Cat: sc-271688; Santa Cruz Biotechnology), α-Beclin 1 (Cat: sc-48341; Santa Cruz Biotechnology)). Membranes were washed with PBS-T and incubated for 2 h with the indicated HRP-conjugated secondary antibody at 4° C. HRP luminescence was activated with Clarity Western ECL Substrate (Bio-Rad) and visualized by the Molecular Imager ChemiDoc Touch system (Bio-Rad).\nImageJ software was used to conduct densitometry analysis on the kinase and western blot images. Background measurements were deducted from each lane to account for exposure, followed by normalization of each lane to each respective Actin measurements. […] Percent changes were calculated by subtracting normalized lane measurements from the normalized control lane.\nThis is potentially due innate differences in the abundance of these mRNAs. […]"}, "[3]": {"settings": "10 μM every day for 5 days, FIG. 16"}, "[4]": {"settings": "CBD 1, 5, 10 μM every day for 5 days"}}}
{"smiles": "C=C(C)[C@@H]1CCC(C)=C[C@H]1c1c(O)cc(CCCCC)cc1O", "note": "[CBD, 2-[1R-3-methyl-6R-(1-methylethenyl)-2-cyclohexen-1-yl]-5-pentyl-1,3-benzenediol]", "values": [{"measurement": "Pol II-associated TAR DNA versus untreated", "setting": "[1]", "value": "statistically significant decreases"}, {"measurement": "reduction in intracellular Nef (densitometry)", "setting": "[2]; [3]", "value": 62, "unit": "%"}, {"measurement": "reduction in intracellular Pr55 (densitometry)", "setting": "[2]; [3]", "value": 99, "unit": "%"}, {"measurement": "reduction in intracellular p24 (densitometry)", "setting": "[2]; [3]", "value": 76, "unit": "%"}, {"measurement": "intracellular CHMP6 (ESCRT-III)", "setting": "[2]; [4]", "value": "slight increase"}, {"measurement": "intracellular VPS4", "setting": "[2]; [4]", "value": "slight increase"}]}
